Data on 6 molecules can be found in US20260199533A1, “RA[…]-AFFINITY COMPOUND AND USE THEREOF” (Osaka University, priority 2022, published 2026).

Data set [1] can be described thus: Stability of the radiolabeled product. The class given is physicochemical. The settings on record: alkylene chain length 0, after purification.
In data set [2] the test system is FAPα/293 cells (293 cells transfected with the human fibroblast activation protein (FAPα) gene). In words: Uptake of 211At-labeled FAPI derivatives into FAPα/293 cells. The class given is cell-based. The settings on record: cultured 30 min, gamma counter, rank order of the three highest of eight derivatives. The protocol: Human embryonic kidney 293 cells (HEK293), and 293 cells transfected with the human fibroblast activation protein (FAPα) gene (FAPα/293) were used in the experiment as FAPα-negative and FAPα-positive cells, respectively. For each type, the cells were seeded in a 24-well plate at 2×10^4 cells per well and cultured for 2 days. An appropriate amount of eight ^211At-labeled FAPI derivatives (Gly(1,F) (Example 8), PEG(1,F) (Example 5), PIP(1,F) (Example 1), PIP(1,H)-8Qui (Example 3), Ac-PIP (Example 13), PEG4(1,H) (Example 7), GlcN-PEG(1,F) (Example 11), PEG(1,H) (Example 6)) were added to each type of the above cells, respectively, and cultured for 30 min. The supernatant was removed by aspiration, and then 0.1N sodium hydroxide solution was added to lyse the cells, and the intracellular radioactivity was measured by a gamma counter. The radioactivity count was corrected per unit protein amount (counts/μg protein). The three compounds with the highest uptake levels into FAPα-positive cells were PIP(1,F)>PIP(1,H)-8Qui>PEG(1,H), in order of […] level.

A further data set deals with FAPα/A549 cells. Nature of the data set: Uptake of 211At-labeled FAPI derivatives into A549 and FAPα/A549 cells. Format: cell-based, human. The note with it: for uptake level in dependence on FAPα expression: A549 (low FAPα) vs FAPα/A549 (high FAPα), 30 min; for competitive inhibition by addition of the corresponding unlabeled form: A549 / FAPα/A549 cells. An excerpt:
(§1) Human non-small cell lung cancer cell lines (A549), human triple-negative (estrogen and progesterone receptors which are hormone receptors, as well as HER2 protein, are all absent) breast cancer cell lines (MDA-MB-231), and A549 cells and MDA-MB-231 cells, each transfected with the human fibroblast activation protein (FAPα) gene (FAPα/A549, FAPα/MDA-MB-231) were used in the experiments as cancer cells with low FAPα expression and cancer cells with high FAPα expression (mimic after high-order histogenesis), respectively. For each type, the cells were seeded in a 24-well plate at 2×10^4 cells per well and cultured for 2 days. An appropriate amount of two ^211At-labeled FAPI derivatives (PIP(1,H) […], PIP-amide(1,H) (Example 14)) were added to each type of the above cells, respectively, and cultured for 30 min. The supernatant was removed by aspiration, and the cells were washed with PBS(−), and then 0.1N sodium hydroxide solution was added to lyse the cells, and the intracellular radioactivity was measured by a gamma counter. The radioactivity count was corrected per unit protein amount (counts/μg protein). […] Considering that the uptake level into human embryonic kidney-derived cells (HEK293) was about 20 counts/μg protein at most, based on the results of PIP(1,F) and the like in Experimental Example 1, it can be said that cancer cells take up more FAPI derivatives than non-cancer cells.

The test system of a further data set is FAPα/MDA-MB-231 cells. Nature of the data set: Uptake of 211At-labeled FAPI derivatives into MDA-MB-231 and FAPα/MDA-MB-231 cells. The class given is cell-based, human. The note with it: for uptake level in dependence on FAPα expression: MDA-MB-231 (low FAPα) vs FAPα/MDA-MB-231 (high FAPα), 30 min; for competitive inhibition by addition of the corresponding unlabeled form: MDA-MB-231 / FAPα/MDA-MB-231 cells.
Text: as §1

Data set [3] is described as follows: Changes in body weight of human pancreatic cancer-transplanted mice. Format: in vivo, nude mice. The note with it: intravenous 1 MBq per mouse, N=4, three weeks, vs saline control. The protocol: (§2) Human pancreatic cancer cells (PANC-1) were subcutaneously administered at 1×10^7 cells to nude mice (male, 6-weeks old) to generate pancreatic cancer-transplanted mice. The mice were intravenously injected with ^211At(C1)-Pip-6Qui-FAPI(H) (PIP(1,H), Example 2) or 211At(C1)-PEG2-6Qui-FAPI(H) (PEG(1,H), Example 6) at 1 MBq per mouse (N=4). Physiological saline was administered to the control group (Control (Saline)) (N=4).

For data set [4], the system named is Human pancreatic cancer cells (PANC-1). Nature of the data set: Inhibitory effect on tumor growth in human pancreatic cancer-transplanted mice. The class given is in vivo, nude mice. The note with it: PANC-1 subcutaneous, intravenous 1 MBq per mouse, N=4, three weeks, vs saline control. The protocol: as §2

As to `N#C[C@@H]1CC(F)(F)CN1C(=O)CNC(=O)c1ccnc2ccc(OCCCN3CCN(C(=O)CCCO[C@@H]4OC(CO)[C@@H](O)C(O)[C@@H]4NC(=O)c4ccc([211At])cc4)CC3)cc12` (stereo partly drawn) [Example 9, ^211At(CO)-GlcN-Pip-6Qui-FAPI(F)], the “stability of the product” value in data set [1] was “low”.

Consider `N#C[C@@H]1CCCN1C(=O)CNC(=O)c1ccnc2c(OCCCN3CCN(C(=O)Cc4ccc([211At])cc4)CC3)cccc12` [Example 3, ^211At(C1)-Pip-8Qui-FAPI(H)], for which the “uptake levels into FAPα-positive cells (intracellular radioactivity)” value in data set [2] is recorded as “PIP(1,F)>PIP(1,H)-8Qui>PEG(1,H)”.

In the case of `N#C[C@@H]1CCCN1C(=O)CNC(=O)c1ccnc2ccc(OCCC(=O)N3CCN(C(=O)Cc4ccc([211At])cc4)CC3)cc12` [Example 14, ^211At(C1)-Pip-amido-6Qui-FAPI(H)], the “uptake level in dependence on FAPα expression” value with FAPα/A549 cells and with FAPα/MDA-MB-231 cells was “uptake level increased as FAPα expression increased” each time. The “competitive inhibition by addition of the corresponding unlabeled form” value with FAPα/A549 cells and in the data set with FAPα/MDA-MB-231 cells was “could be suppressed to a low level” throughout.

Regarding `N#C[C@@H]1CCCN1C(=O)CNC(=O)c1ccnc2ccc(OCCCN3CCN(C(=O)CCCO[C@@H]4OC(CO)[C@@H](O)C(O)[C@@H]4NC(=O)c4ccc([211At])cc4)CC3)cc12` (stereo partly drawn) [Example 10, ^211At(C0)-GlcN-Pip-6Qui-FAPI(H)], in data set [1], the “stability of the product” value is reported as “low”.

Consider `N#C[C@@H]1CCCN1C(=O)CNC(=O)c1ccnc2ccc(OCCCN3CCN(C(=O)Cc4ccc([211At])cc4)CC3)cc12` [Example 2, ^211At(C1)-Pip-6Qui-FAPI(H)], for which the “changes in body weight” value in data set [3] was “comparable to that of the control group”. Moreover, the “uptake level in dependence on FAPα expression” value in the data set on FAPα/A549 cells and in the data set with FAPα/MDA-MB-231 cells was “uptake level increased as FAPα expression increased” throughout. The “competitive inhibition by addition of the corresponding unlabeled form” value with FAPα/A549 cells and in the data set with FAPα/MDA-MB-231 cells was “could be suppressed to a low level” each time. Moreover, the “uptake level (intracellular radioactivity), comparison between derivatives” value was “slightly higher than that of PIP-amide(1,H)” with FAPα/A549 cells (A549 and FAPα/A549 cells, cultured 30 min); “slightly higher than that of PIP-amide(1,H)” in the data set on FAPα/MDA-MB-231 cells (MDA-MB-231 and FAPα/MDA-MB-231 cells, cultured 30 min). In addition, the “inhibitory effect on tumor growth (tumor size)” value in data set [4] is “superior inhibitory effects on tumor growth compared to the control group”.

Consider `N#C[C@@H]1CCCN1C(=O)CNC(=O)c1ccnc2ccc(OCCOCCNC(=O)Cc3ccc([211At])cc3)cc12` [Example 6, ^211At(C1)-PEG2-6Qui-FAPI(H)], for which the “changes in body weight” value in data set [3] is reported as “comparable to that of the control group”. The “uptake levels into FAPα-positive cells (intracellular radioactivity)” value in data set [2] was “PIP(1,F)>PIP(1,H)-8Qui>PEG(1,H)”. For the same molecule, the “inhibitory effect on tumor growth (tumor size)” value in data set [4] is on record as “superior inhibitory effects on tumor growth compared to the control group”.
